Test results reported in paper PMC11589570, “Critical assessment of LC3/GABARAP ligands used for degrader development and ligandability of LC3/GABARAP binding pockets” (Nature Communications, 2024).
Values joined by “and” are separate entries in the source; they are usually repeats but may differ in a detail not shown here. Equal values may be shown once.

Columns and labels:
[1] = system: live cells of the growth assay; experiment: Analysis of images of the live cell growth assay (cell morphology); format: cell-based; settings: consistent with G2/M arrest
Protocol: Using RPE1 and U2OS cells, cell growth was monitored in live cells over a time course of 72 h after treatment with the respective compounds.
Cell growth assay: Cell confluence (phase) from RPE1 (hTERT RPE-1, ATCC CLR_4000) or U2OS (ATCC, HTB-96) cell lines were monitored over time with the IncuCyte S3 (Sartiorius, Germany) in 384-well plates in 50 ul DMEM media, supplemented with 10% Fetal Bovine Serum (FBS) 1% penicillin/Streptomycin and incubated 24 h before treatment. […] Cell confluence is represented as % of area covered by cells. Each data point represents the average ratio or confluence obtained from three individual wells of the plate.

[2] = target: T1, NanoLuc-fusion full-length LC3B (Homo sapiens, UniProt Q9GZQ8); experiment: NanoBRET cellular target engagement assay in HEK293T cells; format: cell-based; settings: LC3B; 1 µM tracer; compound 4 for tracer 16, compound 3 for tracer 17
T1 construct: a fluorescent donor (in this case full length LC3A and LC3B); expressed in transfected cells; host or cells: HEK293T (ATCC; CRL-11268)
Protocol: (§1) NanoBRET cellular target engagement assay: Constructs contained the cDNA of full-length LC3A and LC3B cloned in frame with an N-terminal NanoLuc-fusion. Plasmids were transfected into HEK293T (ATCC; CRL-11268) cells using FuGENE HD (Promega, E2312) and proteins were allowed to express for 20 h. 10O5 and 8F20-based tracers were titrated to the protein as depicted in Supplementary Fig. 4d. For competition experiments, 1 µM of the tracers was pipetted into white 384-well plates (Greiner 781 207) using an Echo 550 acoustic dispenser (Labcyte) containing LC3A/LC3B expressing transfected cells at a density of 2.5 × 10^5 cells/mL in Opti-MEM without phenol red (Life Technologies). The system was allowed to equilibrate for 2 h at 37 °C and 5% CO2 prior to BRET measurements. To measure BRET, NanoBRET NanoGlo Substrate + Extracellular NanoLuc Inhibitor (Promega, N2540) was added as per the manufacturer’s protocol, and filtered luminescence was measured on a PHERAstar plate reader (BMG Labtech) equipped with a luminescence filter pair (450 nm BP filter (donor) and 610 nm LP filter (acceptor)). Competitive displacement data were then plotted using GraphPad Prism 9.3 software using a normalized 3-parameter curve fit. A detailed step-by-step protocol for this assay is described in Schwalm..

[3] = target: T2, NanoLuc-fusion full-length LC3A (Homo sapiens, UniProt Q9H492); experiment: as above; format: cell-based; settings: LC3A; 1 µM tracer; compound 4 for tracer 16, compound 3 for tracer 17
T2 construct: a fluorescent donor (in this case full length LC3A and LC3B); expressed in transfected cells; host or cells: HEK293T (ATCC; CRL-11268)
Protocol: as §1

[4] = target: T3, LC3A (Homo sapiens, UniProt Q9H492); experiment: FP assay with 10O5- and 8F20-based dye-linked tracers 16 and 17; settings: LC3A; compound 3 for tracer 17, compound 4 for tracer 16
From the text: (§2) The only experimental difference in our FP assay setup was the addition of 0.05% Tween-20, which is routinely used[27] to suppress unspecific binding of compounds to proteins.
(§3) Fluorescence polarization assay utilizing tracers 16 and 17 for interaction studies with LC3A
(§4) (upper panels) and LC3B (lower panels). The left panels depict protein titration measurements
(§5) detergent in the buffer to suppress unspecific binding. Middle panels depict displacement
Data were collected in technical
(§6) triplicates with error bars expressing the SD (n=3).

[5] = target: T3, LC3A; experiment: Spectral shift assay (Dianthus), cysteine-labelled protein; format: binding; settings: Repeat 1 and Repeat 2
Protocol: Affinity determination using spectral shift mode on Dianthus: To determine dissociation constants, the Dianthus instrument (NanoTemper Technologies GmbH, Germany) was used to monitor molecular interactions. […] Protein was labelled with RED-maleimide 2nd Generation (cat# MO-L014; NanoTemper Technologies GmbH). Labeling was carried out following the manufacturer protocol, using a 3:1 ratio dye:protein. […] Protein was purified in 30 mM HEPES, 100 mM NaCl, 0.05% Tween, pH 7.5. […] Measurements were performed in spectral shift mode with an LED excitation power of 100%. Data were analyzed using the DI.Screening Analysis Software (v.2.0.4) (NanoTemper Technologies GmbH, Germany) and quality criteria values including Δ Ratio, Signal-to-Noise-Ratio, Fit Saturation and KD values were determined.

[6] = target: LC3; set-up: method as in Dong et al.; settings: higher protein and compound concentrations; ref Dong et al.; read-out: Kd (ITC); cited from earlier work
[7] = target: LC3B (Homo sapiens, UniProt Q9GZQ8); experiment: FP assay with 10O5- and 8F20-based dye-linked tracers 16 and 17; settings: LC3B; compound 3 for tracer 17, compound 4 for tracer 16
From the text: as §2, §3, §4, §5
Data were collected in technical
as §6

[8] = target: GABARAPL2 (Homo sapiens, UniProt P60520); experiment: biochemical
GABARAPL2, sequence (P60520 whole entry): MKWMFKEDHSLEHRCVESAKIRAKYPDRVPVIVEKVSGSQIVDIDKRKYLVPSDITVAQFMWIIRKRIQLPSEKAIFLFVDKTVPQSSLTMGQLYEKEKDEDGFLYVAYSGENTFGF

## Cc1ccc(C(=O)N(CCCN)[C@@H](c2nc3cc(Cl)ccc3c(=O)n2Cc2ccccc2)C(C)C)cc1 [compound 3, (R)-N-(3-aminopropyl)-N-(1-(3-benzyl-7-chloro-4-oxo-3,4-dihydroquinazolin-2-yl)−2-methylpropyl)−4-methylbenzamide]
[1]
  cell morphology in live cell images: increased number of rounded cells
[2]
  NanoBRET signal / tracer displacement: No displacement
[3]
  NanoBRET signal / tracer displacement: No displacement
[4]
  displacement of dye-linked tracer by parent compound: no displacement
[5]; compound 15.2588 nM titrated against LC3A, listed as 8F20 (3)
  Initial Fluorescence: 10115.139 and 10590.376
[5]; compound 30.5176 nM titrated against LC3A, listed as 8F20 (3)
  Initial Fluorescence: 10801.294 and 10751.715
[5]; compound 61.0352 nM titrated against LC3A, listed as 8F20 (3)
  Initial Fluorescence: 10969.053 and 11514.474
[5]; compound 122.07 nM titrated against LC3A, listed as 8F20 (3)
  Initial Fluorescence: 10805.714 and 11350.170
[5]; compound 244.141 nM titrated against LC3A, listed as 8F20 (3)
  Initial Fluorescence: 12437.260 and 12829.142
[5]; compound 488.281 nM titrated against LC3A, listed as 8F20 (3)
  Initial Fluorescence: 11460.432 and 11424.556
[5]; compound 976.562 nM titrated against LC3A, listed as 8F20 (3)
  Initial Fluorescence: 11304.154 and 11789.590
[5]; compound 1953.12 nM titrated against LC3A, listed as 8F20 (3)
  Initial Fluorescence: 11136.164 and 11540.347
[5]; compound 3906.25 nM titrated against LC3A, listed as 8F20 (3)
  Initial Fluorescence: 11540.226 and 11678.705
[5]; compound 7812.5 nM titrated against LC3A, listed as 8F20 (3)
  Initial Fluorescence: 12368.631 and 13118.831
[5]; compound 15625 nM titrated against LC3A, listed as 8F20 (3)
  Initial Fluorescence: 13549.037 and 11303.453
[5]; compound 31250 nM titrated against LC3A, listed as 8F20 (3)
  Initial Fluorescence: 12093.613 and 11816.274
[5]; compound 62500 nM titrated against LC3A, listed as 8F20 (3)
  Initial Fluorescence: 12824.797 and 12883.571
[5]; compound 125000 nM titrated against LC3A, listed as 8F20 (3)
  Initial Fluorescence: 12380.010 and 12980.949
[5]; compound 250000 nM titrated against LC3A, listed as 8F20 (3)
  Initial Fluorescence: 12405.646 and 13536.280
[6]
  Kd: ~12 µM
[7]
  displacement of dye-linked tracer by parent compound: no displacement

## O=C1Nc2ccc(I)cc2C1=Cc1cc(Br)c(O)c(Br)c1 [compound 4]
[2]
  NanoBRET signal / tracer displacement: No displacement
[3]
  NanoBRET signal / tracer displacement: No displacement
[4]
  displacement of dye-linked tracer by parent compound: no displacement
[5]; compound 15.2588 nM titrated against LC3A, listed as 10O5 (4)
  Initial Fluorescence: 5485.239 and 8498.012
[5]; compound 30.5176 nM titrated against LC3A, listed as 10O5 (4)
  Initial Fluorescence: 4967.649 and 8590.938
[5]; compound 61.0352 nM titrated against LC3A, listed as 10O5 (4)
  Initial Fluorescence: 3893.892 and 7432.185
[5]; compound 122.07 nM titrated against LC3A, listed as 10O5 (4)
  Initial Fluorescence: 3715.765 and 5942.313
[5]; compound 244.141 nM titrated against LC3A, listed as 10O5 (4)
  Initial Fluorescence: 3805.917 and 4785.866
[5]; compound 488.281 nM titrated against LC3A, listed as 10O5 (4)
  Initial Fluorescence: 2784.925 and 3093.111
[5]; compound 976.562 nM titrated against LC3A, listed as 10O5 (4)
  Initial Fluorescence: 3008.559 and 2759.079
[5]; compound 1953.12 nM titrated against LC3A, listed as 10O5 (4)
  Initial Fluorescence: 2614.532 and 2461.361
[5]; compound 3906.25 nM titrated against LC3A, listed as 10O5 (4)
  Initial Fluorescence: 2609.726 and 2127.302
[5]; compound 7812.5 nM titrated against LC3A, listed as 10O5 (4)
  Initial Fluorescence: 2627.775 and 2205.232
[5]; compound 15625 nM titrated against LC3A, listed as 10O5 (4)
  Initial Fluorescence: 2084.943 and 1892.122
[5]; compound 31250 nM titrated against LC3A, listed as 10O5 (4)
  Initial Fluorescence: 1913.624 and 1771.147
[5]; compound 62500 nM titrated against LC3A, listed as 10O5 (4)
  Initial Fluorescence: 1934.175 and 2136.348
[5]; compound 125000 nM titrated against LC3A, listed as 10O5 (4)
  Initial Fluorescence: 2010.201 and 1874.865
[5]; compound 250000 nM titrated against LC3A, listed as 10O5 (4)
  Initial Fluorescence: 1863.832 and 1842.946
[5]; compound 500000 nM titrated against LC3A, listed as 10O5 (4)
  Initial Fluorescence: 1618.141 and 1654.997
[8]
  Kd: 15 to 30 µM
[7]
  displacement of dye-linked tracer by parent compound: no displacement
